Experimental findings from patent US4749702A, “Antidepressive substituted N-[(4-piperidinyl)alkyl] bicyclic condensed oxazol- and thiazolamines” (Janssen Pharmaceutica N. V., priority 1987, dated 1988) are described below.

The test system of the test is Loss in righting reflex induced by xylazine. Kind of test: Loss of righting reflex test (xylazine antagonism). The format is in vivo, Female Wistar strain rats. The conditions noted are these: female Wistar rats 220-270 g; test compound 60 min before observation; xylazine 20 mg/kg i.p. 30 min later; route of test compound not given. The method, then: Loss of righting reflex test Female Wistar strain rats weighing 220-270 g were used throughout the test. Sixty minutes before observations were made, the rats were treated with a test compound or with a saline solution. Thirty minutes later, all animals received an intraperitoneal injection of 20 mg/kg body weight of xylazine. […] The degree of which the righting reflex was compromised, was scored 0-3 depending on the animal's response to it being put gently on its back on a flat surface. Score 3: complete loss of righting reflexes; score 2: some righting movements occur, but these fail to result in a 180° turn of the body; score 1: righting movements do result in a 180° turn of the body, but the process takes noticeably more time than it does in normal animals; score 0: righting is effected with a speed similar to that of normal rats.
With `c1ccc2c(c1)OCC(CN1CCC(CNc3nc4cccnc4s3)CC1)O2` (stereo not drawn) [Compound 8, N-[[1-[(2,3-dihydro-1,4-benzodioxin-2-yl)methyl]-4-piperidinyl]methyl]thiazolo[5,4-b]pyridin-2-amine], the “Loss in righting reflex induced by xylazine ED50-values (dose producing loss of righting reflex scores <3 in 50% of the tested animals)” value stood at 0.08 mg/kg.
Next, `c1ccc2c(c1)OC[C@H](CN1CCC(CNc3nc4cccnc4s3)CC1)O2` [Compound 13, (-)-(S)-N-[[1[(2,3-dihydro-1,4-benzodioxin-2-yl)methyl]-4-piperidinyl]methyl]thiazolo[5,4-b]pyridin-2-amine]: 0.08 mg/kg; `Fc1ccc2nc(NCC3CCN(CC4COc5ccccc5O4)CC3)sc2c1` (stereo not drawn) [Compound 19, N-[[1-[(2,3-dihydro-1,4-benzodioxin-2-yl)methyl]-4-piperidinyl]methyl]-6-fluoro-2-benzothiazolamine]: 0.31 mg/kg.
For `Fc1cccc2sc(NCC3CCN(CC4COc5ccccc5O4)CC3)nc12` (stereo not drawn) [Compound 20, N-[[1-[(2,3-dihydro-1,4-benzodioxin-2-yl)methyl]-4-piperidinyl]methyl]-4-fluoro-2-benzothiazolamine], the “Loss in righting reflex induced by xylazine ED50-values (dose producing loss of righting reflex scores <3 in 50% of the tested animals)” value was determined as 0.066 mg/kg.
Consider `Cc1ccc2nc(NCC3CCN(CC4COc5ccccc5O4)CC3)sc2c1` (stereo not drawn) [Compound 21, N-[[1-[(2,3-dihydro-1,4-benzodioxin-2-yl)methyl]-4-piperidinyl]methyl]-6-methyl-2-benzothiazolamine], for which the “Loss in righting reflex induced by xylazine ED50-values (dose producing loss of righting reflex scores <3 in 50% of the tested animals)” value was 0.14 mg/kg.
Take `COc1cc2nc(NCC3CCN(CC4COc5ccccc5O4)CC3)sc2c(OC)c1OC` (stereo not drawn) [Compound 26, N-[[1-[(2,3-dihydro-1,4-benzodioxin-2-yl)methyl]-4-piperidinyl]methyl]-5,6,7-trimethoxy-2-benzothiazolamine (E)-2-butenedioate(2:3)]: the “Loss in righting reflex induced by xylazine ED50-values (dose producing loss of righting reflex scores <3 in 50% of the tested animals)” value was 0.08 mg/kg.
Under `COc1cc2nc(NCC3CCN(CC4COc5ccccc5O4)CC3)sc2cc1OC` (stereo not drawn) [Compound 27, N-[[1-[(2,3-dihydro-1,4-benzodioxin-2-yl)methyl]-4-piperidinyl]methyl]-5,6-dimethoxy-2-benzothiazolamine] stands 0.16 mg/kg.
On to `c1ccc2c(c1)OCC(CN1CCC(CNc3nc4cc5c(cc4s3)OCO5)CC1)O2` (stereo not drawn) [Compound 28, N-[[1-[(2,3-dihydro-1,4-benzodioxin-2-yl)methyl]-4-piperidinyl]methyl]-1,3-dioxolo[4,5-f]benzothiazol-6-amine], for which the “Loss in righting reflex induced by xylazine ED50-values (dose producing loss of righting reflex scores <3 in 50% of the tested animals)” value stood at 0.31 mg/kg.
As for `c1ccc2c(c1)OCC(CN1CCC(CCNc3nc4ccccc4s3)CC1)O2` (stereo not drawn) [Compound 30, N-[2-[1[(2,3-dihydro-1,4-benzodioxin-2-yl)methyl]-4-piperidinyl]ethyl]-2-benzothiazolamine], the “Loss in righting reflex induced by xylazine ED50-values (dose producing loss of righting reflex scores <3 in 50% of the tested animals)” value worked out at 0.31 mg/kg.
For the molecule `COc1cc(OC)c2sc(NCC3CCN(C[C@H]4COc5ccccc5O4)CC3)nc2c1` [Compound 34], the “Loss in righting reflex induced by xylazine ED50-values (dose producing loss of righting reflex scores <3 in 50% of the tested animals)” value is recorded as 0.31 mg/kg.
Regarding `COc1cc2nc(NCC3CCN(CC4CCc5ccccc5O4)CC3)sc2cc1OC` (stereo not drawn) [Compound 35], the “Loss in righting reflex induced by xylazine ED50-values (dose producing loss of righting reflex scores <3 in 50% of the tested animals)” value was determined as 0.31 mg/kg.
For `Cl.Cl.c1ccc2c(c1)OCC(CN1CCC(CNc3nc4ccccc4o3)CC1)O2` (stereo not drawn) [Compound 42, N-[[1-[(2,3-dihydro-1,4-benzodioxin-2-yl)methyl]-4-piperidinyl]methyl]-2-benzoxazolamine dihydrochloride], the “Loss in righting reflex induced by xylazine ED50-values (dose producing loss of righting reflex scores <3 in 50% of the tested animals)” value was 0.31 mg/kg.
Consider `Cl.Cl.Oc1ccc2nc(NCC3CCN(CC4COc5ccccc5O4)CC3)sc2c1` (stereo not drawn) [Compound 57, 2-[[[1-[(2,3-dihydro-1,4-benzodioxin-2-yl)methyl]-4-piperidinyl]methyl]amino]-6-benzothiazolol dihydrochloride], for which the “Loss in righting reflex induced by xylazine ED50-values (dose producing loss of righting reflex scores <3 in 50% of the tested animals)” value was 0.31 mg/kg.
For `c1ccc2c(c1)OCC(CN1CCC(CNc3nc4cnccc4s3)CC1)O2` (stereo not drawn) [Compound 58, N-[[1-[(2,3-dihydro-1,4-benzodioxin-2-yl)methyl]-4-piperidinyl]methyl]thiazolo[4,5-c]pyridin-2-amine], the “Loss in righting reflex induced by xylazine ED50-values (dose producing loss of righting reflex scores <3 in 50% of the tested animals)” value is given as 0.080 mg/kg.
On to `COc1ccc2nc(NCC3CCN(CC4COc5ccccc5O4)CC3)sc2c1` (stereo not drawn) [Compound 68, N-[[1-[(2,3-dihydro-1,4-benzodioxin-2-yl)methyl]-4-piperidinyl]methyl]-6-methoxy-2-benzothiazolamine], for which the “Loss in righting reflex induced by xylazine ED50-values (dose producing loss of righting reflex scores <3 in 50% of the tested animals)” value is listed as 0.16 mg/kg.
